# Key:
# [1] = target: Carbonic anhydrase 9 (Homo sapiens, UniProt Q16790)
# Description: Inhibition of human recombinant CA9 catalytic domain by CO2 hydration assay
# [2] = target: Carbonic anhydrase 1 (Homo sapiens, UniProt P00915)
# Description: Inhibition of human CA1 by CO2 hydration assay
# [3] = target: Carbonic anhydrase 2 (Homo sapiens, UniProt P00918)
# Description: Inhibition of human CA2 by CO2 hydration assay
# [4] = target: Carbonic anhydrase 4 (Homo sapiens, UniProt P22748)
# Description: Inhibition of human CA4 by CO2 hydration assay
# [5] = target: Carbonic anhydrase 12 (Homo sapiens, UniProt O43570)
# Description: Inhibition of human recombinant CA12 catalytic domain by CO2 hydration assay
# [6] = Solubility of the compound in water; assay type: physicochemical; conditions: buffer
# [7] = tested on: Oryctolagus cuniculus; assay: Antiglaucoma activity in New Zealand rabbits assessed as inhibition of carbomer-induced ocular hypertension at 2 % in 50 uL administered into eye after 2 to 3 weeks of carbomer challenge (reference value: 34.2 +/- 1.4 mmHg); assay type: functional
# [8] = tested on: Oryctolagus cuniculus; assay: Antiglaucoma activity in New Zealand rabbits assessed as inhibition of carbomer-induced ocular hypertension at 2 % in 50 uL administered into eye after 2 to 3 weeks of carbomer challenge (reference value: 35.3 +/- 1.2 mmHg); assay type: functional
# Carbonic anhydrase 12, sequence (O43570 whole entry): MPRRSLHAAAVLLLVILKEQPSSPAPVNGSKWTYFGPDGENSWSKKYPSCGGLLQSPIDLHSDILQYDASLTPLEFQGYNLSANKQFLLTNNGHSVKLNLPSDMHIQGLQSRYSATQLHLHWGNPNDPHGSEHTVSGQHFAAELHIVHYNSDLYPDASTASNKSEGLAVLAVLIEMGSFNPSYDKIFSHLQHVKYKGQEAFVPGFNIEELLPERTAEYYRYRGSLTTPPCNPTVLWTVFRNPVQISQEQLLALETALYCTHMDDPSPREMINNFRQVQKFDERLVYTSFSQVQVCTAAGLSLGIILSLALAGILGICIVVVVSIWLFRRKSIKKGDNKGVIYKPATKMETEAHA
# Carbonic anhydrase 4, sequence (P22748 whole entry): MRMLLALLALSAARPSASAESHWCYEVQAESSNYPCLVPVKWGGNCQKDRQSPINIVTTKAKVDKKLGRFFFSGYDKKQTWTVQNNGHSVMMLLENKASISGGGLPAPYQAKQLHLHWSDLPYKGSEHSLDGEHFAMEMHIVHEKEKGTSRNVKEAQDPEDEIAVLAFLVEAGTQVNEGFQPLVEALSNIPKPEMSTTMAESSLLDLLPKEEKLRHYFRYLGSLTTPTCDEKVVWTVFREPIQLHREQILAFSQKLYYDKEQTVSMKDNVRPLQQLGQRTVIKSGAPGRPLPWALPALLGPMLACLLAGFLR
# Carbonic anhydrase 1, sequence (P00915 whole entry): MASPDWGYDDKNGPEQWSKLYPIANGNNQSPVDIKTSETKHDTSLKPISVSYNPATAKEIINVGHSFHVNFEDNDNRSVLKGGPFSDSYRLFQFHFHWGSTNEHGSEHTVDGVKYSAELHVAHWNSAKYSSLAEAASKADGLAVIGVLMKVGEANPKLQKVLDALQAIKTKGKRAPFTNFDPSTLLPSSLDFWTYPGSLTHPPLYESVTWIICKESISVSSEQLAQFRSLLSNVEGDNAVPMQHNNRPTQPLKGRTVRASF
Compound,Ki [1] [nM],Ki [2] [nM],Ki [3] [nM],Ki [4] [nM],Ki [5] [nM],solubility [6] [%],Activity [7] [mmHg],Activity [8] [mmHg]
NS(=O)(=O)c1nnc(NS(=O)(=O)c2ccc(C(=O)OCCCCO[N+](=O)[O-])cc2)s1,10,32,10,46,31,–,–,–
COc1cc(/C=C/C(=O)OCCCCO[N+](=O)[O-])ccc1OC(=O)c1ccc(S(N)(=O)=O)cc1,11,15,10,47,19,> 0.3,–,–
COc1cc(/C=C/C(=O)OCCCCO[N+](=O)[O-])ccc1OC(=O)CCc1ccc(S(N)(=O)=O)cc1,93,395,101,139,87,–,–,–
NS(=O)(=O)c1nnc(NS(=O)(=O)c2cccc(C(=O)OCCCCO[N+](=O)[O-])c2)s1,235,40,–,154,31,–,–,–
NS(=O)(=O)c1ccc(OCCCCO[N+](=O)[O-])cc1,25,41,12,76,29,–,–,–
CCN(CC)CCOC(=O)c1ccc(S(=O)(=O)Nc2nnc(S(N)(=O)=O)s2)cc1,–,–,1.4,–,–,–,–,–
NS(=O)(=O)c1ccc(C(=O)OCCCCO[N+](=O)[O-])cc1,165,189,18,44,30,2,20.6,–
NS(=O)(=O)c1ccc(OCCCO[N+](=O)[O-])cc1,83,587,88,148,83,–,–,–
COc1cc(/C=C/C(=O)OCCCCO[N+](=O)[O-])ccc1OC(=O)c1cccc(S(=O)(=O)Nc2nnc(S(N)(=O)=O)s2)c1,177,137,33,225,42,–,–,–
NS(=O)(=O)c1ccc(OCCCCCO[N+](=O)[O-])cc1,85,950,71,89,116,–,–,–
NS(=O)(=O)c1ccc(C(=O)OCc2ccc(CO[N+](=O)[O-])cc2)cc1,253,242,198,345,147,–,–,–
O=[N+]([O-])O[C@@H]1CO[C@H]2[C@@H]1OC[C@@H]2O [ISOSORBIDE MONONITRATE],–,–,–,–,–,–,–,28.4
COc1cc(/C=C/C(=O)OCCCCO[N+](=O)[O-])ccc1OC(=O)c1ccc(S(=O)(=O)Nc2nnc(S(N)(=O)=O)s2)cc1,11,43,14,38,43,–,–,–
